Data on 10 molecules can be found in ChEMBL document CHEMBL1201862, “PubChem BioAssay data set” (2004).

The structures appear in SMILES notation.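 Method: 48-hour compound exposure of cells in 96-well plates, five concentrations, linear interpolation of endpoints. The concentration for 50% growth inhibition is given as GI50.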 Active and inactive are the calls of the source. Rule as the data show it: active = GI50 up to about 1.1 µM and inactive = higher. A value given as a limit tells only on which side of the number the result lay.

Some test systems named below: 786-0; A498; HOP-62; Hs-578T; IGROV-1; LOX IMVI; M14; MCF7; MDA-MB-435; MDA-N; NCI-H23; NCI-H522; OVCAR-4; PC-3; RXF 393; SF-268; SK-MEL-2; SNB-75; T47D; CCRF-CEM.
Common to all, as to assay: growth of human tumour cells (NCI), 48 h

In the case of `CCCC/C=C1/CCC(CN(C)C)C1=O` (configuration not stated), the GI50 with 786-0 was 1.55 µM (inactive); in the assay on A498 it was 8.77 µM (inactive); with HOP-62, 20 µM (inactive); in the assay with Hs-578T, 3.18 µM (inactive); in the assay on IGROV-1, 3.98 µM (inactive); in the assay on LOX IMVI, 1.39 µM (inactive). The GI50 is 1.71 µM (inactive) with M14; 0.525 µM (active) in the assay on MCF7; 11 µM (inactive) with MDA-MB-435; 2.42 µM (inactive) with MDA-N; 3.41 µM (inactive) in the assay on NCI-H23; 0.656 µM (active) in the assay on NCI-H522. In addition, the GI50 in the assay on OVCAR-4 is 1.92 µM (inactive); in the assay with PC-3 it was 14.1 µM (inactive); in the assay on RXF 393, 1.77 µM (inactive); in the assay on SF-268, 2.47 µM (inactive); with SK-MEL-2, 4.49 µM (inactive); with SNB-75 it was 3.21 µM (inactive). Further, the GI50 with T47D is 1.31 µM (inactive).

For the molecule `CN(C)Cc1ccc(O)c(CN(C)C)n1`, the GI50 with 786-0, with A498, in the assay on HOP-62, in the assay on Hs-578T, in the assay on IGROV-1 and in the assay on LOX IMVI was > 100 µM (inactive) in each case. In addition, the GI50 in the assay on M14, in the assay on MCF7, in the assay on MDA-MB-435, with MDA-N, in the assay on NCI-H23 and with NCI-H522 was > 100 µM (inactive) each time. Further, the GI50 with OVCAR-4, in the assay on PC-3, with RXF 393, in the assay on SF-268, with SK-MEL-2 and with SNB-75 was > 100 µM (inactive) each time. In addition, the GI50 with T47D was > 100 µM (inactive).

Consider `O=c1c2cc3c(=O)n4c(cc(-c5ccccc5)c5cc(Cl)ccc54)nc3cc2nc2cc(-c3ccccc3)c3cc(Cl)ccc3n12`, for which the GI50 with 786-0 was 64.1 µM (inactive); in the assay on A498 it was > 100 µM (inactive); in the assay on CCRF-CEM it was > 100 µM (inactive); with HOP-62, 34.9 µM (inactive); in the assay with Hs-578T, 43.4 µM (inactive); with IGROV-1 it was > 100 µM (inactive). Also, the GI50 in the assay on LOX IMVI, with M14, in the assay on MCF7, in the assay with MDA-MB-435, with MDA-N and in the assay with NCI-H23 was > 100 µM (inactive) in each case. Moreover, the GI50 with NCI-H522 was > 100 µM (inactive); with PC-3 it was > 100 µM (inactive); with RXF 393 it was 34.8 µM (inactive); in the assay on SF-268, > 100 µM (inactive); in the assay on SK-MEL-2, > 100 µM (inactive); in the assay on SNB-75, 36.8 µM (inactive). Moreover, the GI50 in the assay with T47D is > 100 µM (inactive).

Regarding `O=S1(=O)CCC2=CC(C(F)(F)F)=CC(C(F)(F)F)=CN21`, the GI50 in the assay on 786-0 was 0.415 µM (active); in the assay on A498, 2.08 µM (inactive); with CCRF-CEM, 0.0738 µM (active); in the assay on HOP-62, 2.34 µM (inactive); in the assay on Hs-578T, 3.1 µM (inactive); in the assay on IGROV-1, 1.84 µM (inactive). For the same molecule, the GI50 in the assay on LOX IMVI is 0.348 µM (active); with M14, 0.693 µM (active); in the assay on MCF7, 0.386 µM (active); in the assay on MDA-MB-435, 1.82 µM (inactive); in the assay with MDA-N, 0.792 µM (active); with NCI-H23, 1.19 µM (inactive). In addition, the GI50 in the assay with NCI-H522 was 0.236 µM (active); with OVCAR-4 it was 1.71 µM (inactive); with PC-3, 2.01 µM (inactive); in the assay with RXF 393, 1.47 µM (inactive); in the assay with SF-268, 1.72 µM (inactive); in the assay with SK-MEL-2, 1.82 µM (inactive). Also, the GI50 in the assay with SNB-75 is 1.71 µM (inactive); with T47D, 0.167 µM (active).

For the molecule `O=C1/C(=C/c2ccc(Cl)cc2)N=C(c2ccccc2)N1C1Nc2cc3c(cc2S1)NC(N1C(=O)/C(=C/c2ccc(Cl)cc2)N=C1c1ccccc1)S3` (configuration not stated), the GI50 was 87.3 µM (inactive) with 786-0; > 100 µM (inactive) with A498; 11.5 µM (inactive) with CCRF-CEM; 90.2 µM (inactive) in the assay with HOP-62; 35.2 µM (inactive) in the assay on Hs-578T; 47.6 µM (inactive) in the assay on IGROV-1. The GI50 in the assay on LOX IMVI was 31.7 µM (inactive); in the assay on M14 it was > 100 µM (inactive); with MCF7 it was 42.2 µM (inactive); in the assay with MDA-MB-435 it was 52.8 µM (inactive); in the assay on MDA-N, 45.2 µM (inactive); in the assay with NCI-H23, > 100 µM (inactive). Further, the GI50 with NCI-H522 is 18.7 µM (inactive); with OVCAR-4 it was 59.2 µM (inactive); in the assay with PC-3, 40.7 µM (inactive); in the assay on RXF 393 it was 76.6 µM (inactive); in the assay with SF-268, 27 µM (inactive); with SK-MEL-2 it was 88.9 µM (inactive). Further, the GI50 in the assay with T47D is 28.8 µM (inactive).

As to `C/C(O)=C/C(=O)c1[nH]c(C(=O)O)cc1C1CCN(Cc2ccccc2)C1=O` (configuration not stated), the GI50 was 21 µM (inactive) in the assay on 786-0; 41.1 µM (inactive) in the assay with A498; 15.8 µM (inactive) in the assay with HOP-62; 32.4 µM (inactive) with Hs-578T; 25.3 µM (inactive) in the assay on IGROV-1; 15.3 µM (inactive) with M14. The GI50 in the assay with MCF7 was 22.1 µM (inactive); in the assay on MDA-MB-435, 27.3 µM (inactive); with MDA-N, 17.2 µM (inactive); in the assay on NCI-H23, 17.9 µM (inactive); with NCI-H522, 23.7 µM (inactive); with OVCAR-4, 34 µM (inactive). The GI50 is 32.7 µM (inactive) in the assay on PC-3; 12 µM (inactive) in the assay on RXF 393; 20 µM (inactive) with SF-268; 22.8 µM (inactive) in the assay on SK-MEL-2; 20.8 µM (inactive) in the assay with SNB-75; 15.7 µM (inactive) in the assay with T47D.

`Cc1nc(O)nc2nc3ccc(Cl)cc3c(N(CCO)CCO)c12`: the GI50 in the assay on 786-0 is > 100 µM (inactive); with A498, > 100 µM (inactive); with CCRF-CEM, > 100 µM (inactive); in the assay with HOP-62, > 100 µM (inactive); with Hs-578T, 10.7 µM (inactive); in the assay with IGROV-1, > 100 µM (inactive). Moreover, the GI50 in the assay on LOX IMVI, with M14, in the assay on MCF7, in the assay on MDA-MB-435, in the assay with MDA-N and in the assay with NCI-H23 was > 100 µM (inactive) throughout. Further, the GI50 in the assay on NCI-H522 is 24 µM (inactive); in the assay with OVCAR-4 it was 18.4 µM (inactive); in the assay with PC-3, > 100 µM (inactive); in the assay on RXF 393, 73.6 µM (inactive); in the assay on SF-268, > 100 µM (inactive); in the assay on SK-MEL-2, > 100 µM (inactive). The GI50 in the assay with T47D is > 100 µM (inactive).

Take `Clc1cccc2[nH]ncc12`: the GI50 was > 100 µM (inactive) with 786-0; > 100 µM (inactive) in the assay on A498; > 100 µM (inactive) in the assay on CCRF-CEM; > 100 µM (inactive) in the assay on HOP-62; 76 µM (inactive) in the assay on Hs-578T; > 100 µM (inactive) with IGROV-1. The GI50 in the assay on LOX IMVI is 58.1 µM (inactive); in the assay with MCF7, 64.6 µM (inactive); in the assay on MDA-MB-435, > 100 µM (inactive); with MDA-N, > 100 µM (inactive); in the assay on NCI-H522, 26.5 µM (inactive); in the assay with OVCAR-4, > 100 µM (inactive). The GI50 is > 100 µM (inactive) in the assay on PC-3; 51.8 µM (inactive) with RXF 393; > 100 µM (inactive) with SK-MEL-2; 45.3 µM (inactive) in the assay with SNB-75; 16.6 µM (inactive) with T47D.

Regarding `C/C(=N\Nc1nc2ccccc2o1)c1cc2ccccc2cn1`, the GI50 in the assay on 786-0 is < 0.01 µM (active); in the assay on A498, 15 µM (inactive); with CCRF-CEM, < 0.01 µM (active); in the assay with HOP-62, 0.14 µM (active); in the assay with Hs-578T, 0.237 µM (active); in the assay with IGROV-1 it was < 0.01 µM (active). Besides, the GI50 in the assay on M14 was < 0.01 µM (active); with MCF7, < 0.01 µM (active); in the assay on MDA-MB-435, 0.202 µM (active); in the assay on MDA-N, 0.942 µM (active); in the assay with NCI-H23, < 0.0187 µM (active); in the assay with NCI-H522, < 0.01 µM (active). For the same molecule, the GI50 is 0.0906 µM (active) in the assay with OVCAR-4; < 0.01 µM (active) in the assay with PC-3; 0.946 µM (active) in the assay on RXF 393; < 0.0188 µM (active) with SF-268; 2.98 µM (inactive) in the assay on SK-MEL-2; 0.476 µM (active) in the assay on SNB-75. For the same molecule, in the assay with T47D, the GI50 is < 0.01 µM (active).

With `C/C=C1/CN2[C@@H](C3=C[C@@H]4[C@@H]5N(C3=O)c3ccccc3[C@@]53CCN5C/C(=C/C)[C@@H]4C[C@H]53)C[C@@]34c5ccccc5N5C(=O)CC=C([C@H]1C[C@H]23)[C@H]54` [ISOSUNGUCINE], the GI50 in the assay with 786-0 is 2.16 µM (inactive); in the assay on A498, 6.92 µM (inactive); in the assay on CCRF-CEM, 1.1 µM (active); in the assay on HOP-62, 7.06 µM (inactive); with Hs-578T, 6.65 µM (inactive); in the assay on M14, 1.18 µM (inactive). Also, the GI50 in the assay on MCF7 is 3.46 µM (inactive); with MDA-MB-435, 5.01 µM (inactive); with MDA-N, 3.84 µM (inactive); with NCI-H23, 6.85 µM (inactive); with NCI-H522, 6.9 µM (inactive); in the assay on OVCAR-4 it was 6.43 µM (inactive). Moreover, the GI50 with PC-3 was 2.7 µM (inactive); in the assay on RXF 393, 2.17 µM (inactive); in the assay with SF-268 it was 6.19 µM (inactive); in the assay on SK-MEL-2, 5.32 µM (inactive); in the assay on SNB-75 it was 7.91 µM (inactive); in the assay on T47D, 9.93 µM (inactive).
